Reference: paper PMC11864979, “First-in-class ultralong-target-residence-time p38α inhibitors as a mitosis-targeted therapy for colorectal cancer” (Nature Cancer, 2025)
Values joined by “and” are separate entries in the source; they are usually repeats but may differ in a detail not shown here. Identical values can stand only once. Like-named read-outs stand apart in the source and are kept apart here.

Key:
KAP organoids = assay: cell viability in KAP organoids (CellTiter-Glo); assay type: cell-based, mouse; details: for viability at 1 µM: Mus musculus; for induction of cell death in KAP organoids (in words): viability assay
Description: (§1) For in vitro treatment studies, organoids were mechanically dissociated and digested using TrypLE supplemented with 100 µg ml^−1 DNaseI and 10.5 µM Y-27632 dihydrochloride (Invitrogen) at 37 °C. A total of 1,000–2,000 single cells were plated per well in white 96-well plates (Greiner) in culture medium containing 10% GFR Matrigel or Cultrex BME. The treatment with doxycycline (5 µg ml^−1), pharmacological inhibitors or corresponding volumes of DMSO was started 24 h after plating. Doxycycline was obtained from Sigma-Aldrich. […] Cell viability was measured by means of CellTiter-Glo 3D or CellTiter-Glo 2.0 reagent (Promega) according to the manufacturers’ instructions and the Infinite M Plex reader (Tecan, i-control version 3.9.1 software). Results were normalized to vehicle (DMSO) or to shNC. For cell-doubling assays, the cell number was quantified at the corresponding time points using Guava EasyCyte flow cytometer (Luminex, CytoSoft v5.2 software).

PDO15 = assay: cell viability in patient-derived CRC organoids PDO15; assay type: cell-based, human; details: for viability at 0.5 µM / viability at 1 µM: Homo sapiens, 96 h, read-out: Cell viability (%)
Description: as §1

KAP^2D cells [1] = assay: P-H3^S10 / α-tubulin staining, mitotic phases in KAP^2D cells; assay type: cell-based, mouse; details: replicates, experiment and repetition; for Anaphase, % (of fully P-H3S10+ cells) / Metaphase, % (of fully P-H3S10+ cells) / Multipolar mitosis, % (of fully P-H3S10+ cells) / Telophase, % (of fully P-H3S10+ cells): Fig. 4f; for P-H3S10+ cells, fully positive / P-H3S10+ cells, partially positive: Fig. 4d
Description: Immunofluorescence staining on cells and organoids was performed on glass coverslips or tissue culture chambers (Sarstedt). Organoids were plated in medium containing 10% Matrigel or Cultrex BME. The cultures were fixed with 4% paraformaldehyde and stained with specific antibodies and DAPI (Vector Labs). All used antibodies and dilutions are listed in the Nature Portfolio Reporting Summary. For analyzing DNA synthesis, the Molecular Probes Click-iT EdU Alexa Fluor 555 kit was used 24 h after EdU incorporation with DAPI counterstaining. SA-β-Gal staining of cells was performed in cell culture dishes (cells) or tissue culture chambers (organoids) after fixation with 0.5% glutaraldehyde as described above. Human cultures were incubated with X-Gal solution at pH 6.0 for ~4 h. […] Positive cells were quantified using ImageJ version 1.53a software. The analysis of mitosis was performed with an LSM800 Airyscan (Zeiss) microscope (ZEN version 3.0 software). An Airyscan autofilter processing was applied before image analysis.

PDO13 = assay: cell viability in patient-derived CRC organoids PDO13; assay type: cell-based, human; details: for viability at 0.5 µM / viability at 1 µM: Homo sapiens, 96 h, read-out: Cell viability (%)
Description: as §1

subcutaneous KAP CRCs = assay: treatment of subcutaneous KAP tumors in wild-type mice; assay type: in vivo, mouse; details: for Tumor volume: single tumors; for subcutaneous KAP tumor development (in words): 20 mg kg^−1 daily, oral gavage; for Tumor volume (mm³): Fig. 1j, individual tumors
Description: (§2) Subcutaneous injection, splenic seeding or cecum injection of organoids was performed in 8–10-week-old C57BL/6 N/Crl, Rag2^−/− (B6.Cg-Rag2^tm1.1Cgn/J), or CB17 Scid beige (CB17.Cg-Prkdc^scidLyst^bg-J/Crl) mice, obtained from Charles River. The organoids were dissociated into single cells, washed with PBS and injected in a 1:1 mixture of PBS and Matrigel. For murine organoids, 1 × 10^5 cells were injected into the left and right flanks or the spleen capsule and 2 × 10^6 cells were injected into the cecum wall. For human organoids, 4 × 10^5 cells were injected into the flanks of CB17 Scid beige mice. For splenic seeding and cecum injection, mice were anaesthetized using ketamine (100 mg kg^−1, intraperitoneally) and xylazin (10 mg/kg, intraperitoneally) in NaCl and a small laparotomy below the thorax was performed.
(§3) No mice were excluded during treatment studies.

PDO10 = assay: cell viability in patient-derived CRC organoids PDO10; assay type: cell-based, human
Description: as §1

KAP^2D cells [2] = assay: EdU incorporation in KAP^2D cells; assay type: cell-based, mouse; details: replicates, experiment and repetition
Description: Immunofluorescence staining on cells and organoids was performed on glass coverslips or tissue culture chambers (Sarstedt). Organoids were plated in medium containing 10% Matrigel or Cultrex BME. The cultures were fixed with 4% paraformaldehyde and stained with specific antibodies and DAPI (Vector Labs). All used antibodies and dilutions are listed in the Nature Portfolio Reporting Summary. For analyzing DNA synthesis, the Molecular Probes Click-iT EdU Alexa Fluor 555 kit was used 24 h after EdU incorporation with DAPI counterstaining. SA-β-Gal staining of cells was performed in cell culture dishes (cells) or tissue culture chambers (organoids) after fixation with 0.5% glutaraldehyde as described above. Human cultures were incubated with X-Gal solution at pH 6.0 for ~4 h.

KAP liver metastasis = assay: survival of wild-type mice with KAP liver metastasis; assay type: in vivo, mouse; details: for survival / therapeutic efficacy in KAP liver metastasis (in words): 20 mg kg^−1 daily, start 5 weeks after organoid inoculation; for Survival: single animals, 1 = event, 0 = censored, Fig. 6e
Description: as §2, §3

[3] = Fig. 2b, compound screen, replicates
[4] = Fig. 2f, 0,5 µM, replicates, 5 µM
[5] = Fig. 2f, 0,25 µM, replicates, 25 µM
[6] = Fig. 2f, 1 µM, replicates, read-out: Cell viability (%)
[7] = drug screen in KAP organoids, 1 µM concentration, n = 3, mean, read-out: Cell viability (% of DMSO)
[8] = Homo sapiens, 96 h, PDO10, 1 µM, 4 days, read-out: Cell viability (%)

O=C(NCCN1CCOCC1)c1ccc2c(c1)C(=O)c1ccc(Nc3ccc(F)c(NC(=O)c4ccccc4)c3)cc1CC2 [Compound 1639]
Cell viability (%) (KAP organoids; Fig. 1g, 0.5 µM, replicates): 93.61% and 119.78% and 82.99%
Cell viability (%) (KAP organoids; Fig. 1g, 1 µM, replicates): 54.56% and 39.62%
Cell viability (%) (KAP organoids; [3]): 45.26% and 35.57% and 35.59%
Cell viability (%) (KAP organoids; [4]): 109.96% and 85.33% and 68.50%
Cell viability (%) (KAP organoids; [5]): 115.00% and 101.97% and 82.44%
Cell viability (%) (KAP organoids; Fig. 2f, 1 µM, replicates): 55.27% and 54.06%
viability at 1 µM (KAP organoids; Fig. 1g, 1 µM, replicates, read-out: Cell viability (%)): 51.8%
viability at 1 µM (KAP organoids; [6]): 72.9%
viability at 1 µM (KAP organoids; [7]): 38.8%
induction of cell death in KAP organoids (in words) (KAP organoids): moderate but significant induction of cell death
viability at 0.5 µM (PDO15; PDO15, 0.5 µM, 4 d): 101%
viability at 1 µM (PDO15; PDO15, 1 µM, 4 days): 87.7%
Cell viability (%) (PDO15; PDO15, 0.5 µM, 4 d, 0.5 µM): 102.64% and 92.86%
Cell viability (%) (PDO15; PDO15, 1 µM, 4 days, 1 µM): 91.79% and 86.01%
Anaphase, % (of fully P-H3S10+ cells) (KAP^2D cells [1]): 14.94% and 12.77% and 11.59% and 15.15% and 10.11% and 8.57%
Metaphase, % (of fully P-H3S10+ cells) (KAP^2D cells [1]): 17.24% and 21.28% and 8.70% and 19.70% and 24.72% and 20.00%
Multipolar mitosis, % (of fully P-H3S10+ cells) (KAP^2D cells [1]): 9.20% and 12.77% and 8.70% and 9.09% and 10.11% and 8.57%
Telophase, % (of fully P-H3S10+ cells) (KAP^2D cells [1]): 12.64% and 9.57% and 7.25% and 16.67% and 10.11% and 14.29%
P-H3S10+ cells, fully positive (KAP^2D cells [1]): 5.80% and 5.96% and 4.15% and 4.12% and 5.10% and 3.55%
P-H3S10+ cells, partially positive (KAP^2D cells [1]): 8.66% and 7.86% and 7.71% and 7.49% and 8.02% and 8.52%
viability at 0.5 µM (PDO13; PDO13, 0.5 µM, 4 d): 93.8%
viability at 1 µM (PDO13; PDO13, 1 µM, 4 days): 84.5%
Cell viability (%) (PDO13; PDO13, 0.5 µM, 4 d, 0.5 µM): 111.59% and 96.20%
Cell viability (%) (PDO13; PDO13, 1 µM, 4 days, 1 µM): 86.80% and 77.48%
Tumor volume (subcutaneous KAP CRCs; 0 d of treatment, Fig. 3k): 56.0 mm³ and 75.0 mm³ and 48.0 mm³ and 80.0 mm³ and 62.5 mm³ and 40.0 mm³ and 64.0 mm³
subcutaneous KAP tumor development (in words) (subcutaneous KAP CRCs): decelerated CRC development
Tumor volume (mm³) (subcutaneous KAP CRCs; day 0 of treatment): 56.0 mm³ (2×) and 75.0 mm³ and 48.0 mm³ (3×) and 80.0 mm³ and 62.5 mm³ and 40.0 mm³ and 64.0 mm³
Tumor volume (mm³) (subcutaneous KAP CRCs; day 2 of treatment): 75.0 mm³ (2×) and 87.5 mm³ and 62.5 mm³ and 125.0 mm³ and 56.0 mm³ (2×) and 72.0 mm³ and 48.0 mm³ and 64.0 mm³
Tumor volume (mm³) (subcutaneous KAP CRCs; day 4 of treatment): 126.0 mm³ (2×) and 64.0 mm³ and 125.0 mm³ and 72.0 mm³ and 75.0 mm³ and 62.5 mm³ (2×) and 80.0 mm³ and 100.0 mm³
Tumor volume (mm³) (subcutaneous KAP CRCs; day 6 of treatment): 144.0 mm³ (2×) and 75.0 mm³ (2×) and 112.5 mm³ and 80.0 mm³ and 62.5 mm³ and 56.0 mm³ and 87.5 mm³ and 126.0 mm³
Tumor volume (mm³) (subcutaneous KAP CRCs; day 8 of treatment): 144.0 mm³ (2×) and 162.0 mm³ and 87.5 mm³ (2×) and 112.5 mm³ and 75.0 mm³ (3×) and 100.0 mm³
Tumor volume (mm³) (subcutaneous KAP CRCs; day 10 of treatment): 162.0 mm³ and 180.0 mm³ and 87.5 mm³ (4×) and 108.0 mm³ (2×) and 75.0 mm³ and 171.5 mm³
Tumor volume (mm³) (subcutaneous KAP CRCs; day 12 of treatment): 180.0 mm³ (2×) and 220.5 mm³ and 112.5 mm³ (3×) and 100.0 mm³ and 108.0 mm³ and 64.0 mm³ and 126.0 mm³
viability at 0.5 µM (PDO10; Homo sapiens, 96 h, PDO10, 0.5 µM, 4 d, read-out: Cell viability (%)): 90.3%
viability at 1 µM (PDO10; [8]): 87.1%
Cell viability (%) (PDO10; PDO10, 0.5 µM, 4 d, 0.5 µM): 99.84% and 101.72%
Cell viability (%) (PDO10; PDO10, 1 µM, 4 days, 1 µM): 92.00% and 89.92%
EdU+ cells (KAP^2D cells [2]; Fig. 4j): 87.08% and 89.84% and 80.20% and 80.71% and 77.64% and 85.43% and 87.34% and 80.43%
EdU+ cells (KAP^2D cells [2]; Fig. 5b): 16.24% and 18.58% and 17.71% and 16.69% and 15.27% and 21.79% and 19.62% and 11.52%
survival / therapeutic efficacy in KAP liver metastasis (in words) (KAP liver metastasis): slight but nonsignificant survival benefit
Survival (KAP liver metastasis): 26 d of treatment and 29 d of treatment and 11 d of treatment and 12 d of treatment and 25 d of treatment and 27 d of treatment and 20 d of treatment

CNC(=O)c1ccc2c(c1)C(=O)c1ccc(Nc3ccc(F)c(NC(=O)C4CC4)c3)cc1CC2 [Compound 2015]
Cell viability (%) (KAP organoids; [3]): 20.98% and 10.41% and 17.65%
Cell viability (%) (KAP organoids; [4]): 20.49% and 19.41%
Cell viability (%) (KAP organoids; [5]): 76.91% and 71.00%
Cell viability (%) (KAP organoids; Fig. 2f, 1 µM, replicates): 22.79% and 21.48%
viability at 1 µM (KAP organoids; [6]): 22.2%
viability at 1 µM (KAP organoids; [7]): 16.4%
induction of cell death in KAP organoids (in words) (KAP organoids): increased cell death induction
viability at 0.5 µM (PDO15; PDO15, 0.5 µM, 4 d): 77.8%
viability at 1 µM (PDO15; PDO15, 1 µM, 4 days): 42.9%
Cell viability (%) (PDO15; PDO15, 0.5 µM, 4 d, 0.5 µM): 81.70% and 63.83%
Cell viability (%) (PDO15; PDO15, 1 µM, 4 days, 1 µM): 57.05% and 51.26%
Anaphase, % (of fully P-H3S10+ cells) (KAP^2D cells [1]): 0.00%
Metaphase, % (of fully P-H3S10+ cells) (KAP^2D cells [1]): 0.00%
Multipolar mitosis, % (of fully P-H3S10+ cells) (KAP^2D cells [1]): 75.00% and 72.55% and 66.43% and 67.83% and 80.50% and 84.38%
Telophase, % (of fully P-H3S10+ cells) (KAP^2D cells [1]): 1.72% and 0.65% and 0.70% and 0.00% and 1.89% and 0.78%
P-H3S10+ cells, fully positive (KAP^2D cells [1]): 12.93% and 17.02% and 15.43% and 13.33% and 14.34% and 14.40%
P-H3S10+ cells, partially positive (KAP^2D cells [1]): 12.04% and 13.24% and 14.13% and 9.97% and 10.28% and 12.15%
viability at 0.5 µM (PDO13; PDO13, 0.5 µM, 4 d): 25.4%
viability at 1 µM (PDO13; PDO13, 1 µM, 4 days): 27.4%
Cell viability (%) (PDO13; PDO13, 0.5 µM, 4 d, 0.5 µM): 27.09% and 31.57%
Cell viability (%) (PDO13; PDO13, 1 µM, 4 days, 1 µM): 24.42% and 28.18%
subcutaneous KAP tumor development (in words) (subcutaneous KAP CRCs): pronounced remission of CRC
Tumor volume (subcutaneous KAP CRCs; 2 d of treatment, Fig. 5i): 87.5 mm³ and 75.0 mm³ and 126.0 mm³ and 144.0 mm³
Tumor volume (subcutaneous KAP CRCs; 4 d of treatment, Fig. 5i): 48.0 mm³ and 56.0 mm³ and 40.0 mm³
viability at 1 µM (PDO10; [8]): 32.9%
Cell viability (%) (PDO10; PDO10, 0.5 µM, 4 d, 0.5 µM): 34.24% and 30.71% and 56.53%
Cell viability (%) (PDO10; PDO10, 1 µM, 4 days, 1 µM): 48.68% and 34.77%
EdU+ cells (KAP^2D cells [2]; Fig. 4j): 50.19% and 55.77% and 45.40% and 44.63% and 45.42% and 38.28% and 36.62% and 49.78%
EdU+ cells (KAP^2D cells [2]; Fig. 5b): 7.76% and 6.30% and 5.41% and 9.24% and 8.18% and 6.48% and 4.44% and 6.67%
survival / therapeutic efficacy in KAP liver metastasis (in words) (KAP liver metastasis): significantly increased the overall survival
Survival (KAP liver metastasis): 41 d of treatment and 44 d of treatment and 45 d of treatment and 47 d of treatment and ≥ 50 d of treatment and 34 d of treatment
